ChEMBL document CHEMBL3217729, “Sangamides, a new class of cyclophilin-inhibiting host-targeted antivirals for treatment of HCV infection” (Medchemcomm, 2012)
Values after ≈ are worked out from the molar mass of the structure shown.

What was measured:
Hepatitis C virus [1] = assay: Antiviral activity against Hepatitis C virus genotype 1b I389luc-ubi-neo/NS3-3'/5.1 subgenomic replicon infected in human Huh5-2 cells after 4 days by luciferase assay; assay type: functional, cell-based, Hepacivirus hominis; conditions: Huh-5-2, 96 h
[2] = Selectivity index, ratio of CC50 for human Huh5-2 cells to EC50 for Hepatitis C virus genotype 1b I389luc-ubi-neo/NS3-3'/5.1 subgenomic replicon infected in human Huh5-2 cells; assay type: toxicity, cell-based, Huh-5-2; conditions: read-out: Ratio CC50/EC50
[3] = Cytostatic activity against human Huh5-2 cells assessed as decrease in cell proliferation after 3 days by MTS method; assay type: ADME, cell-based, Huh-5-2
Hepatitis C virus [4] = assay: Antiviral activity against Hepatitis C virus genotype 1b Con1 infected in human Huh7 cells assessed as decrease in subgenomic RNA level after 72 hrs by RT-PCR analysis; assay type: functional, cell-based, Hepacivirus hominis; conditions: genotype 1b Con1, Huh-7, 72 h
in vitro = conditions: mouse, liver microsomes
Description: Half life in mouse liver microsomes at 1 uM by LC-MS/MS analysis

[5] = Half life in human hepatocytes at 1 uM by LC-MS/MS analysis; assay type: ADME, cell-based, Hepatocyte
[6] = Half life in human liver microsomes at 1 uM by LC-MS/MS analysis; assay type: ADME
[7] = target: T1, Peptidyl-prolyl cis-trans isomerase A (Homo sapiens, UniProt P62937); assay: Inhibition of recombinant GST-tagged CypA (unknown origin)/HCV Con1 NS5A-His interaction after 16 hrs by ELISA
T1 sequence (P62937 whole entry): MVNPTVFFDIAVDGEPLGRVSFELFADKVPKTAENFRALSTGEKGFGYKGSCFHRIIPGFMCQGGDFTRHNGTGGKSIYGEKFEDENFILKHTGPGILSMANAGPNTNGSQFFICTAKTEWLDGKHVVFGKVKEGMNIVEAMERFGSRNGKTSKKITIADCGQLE

Hepatitis C virus [8] = assay: Antiviral activity against Hepatitis C virus genotype 1a H77 infected in human Huh7 cells assessed as decrease in subgenomic RNA level after 72 hrs by RT-PCR analysis; assay type: functional, cell-based, Hepacivirus hominis; conditions: genotype 1a H77, Huh-7, 72 h
Hepatitis C virus [9] = assay: Antiviral activity against Hepatitis C virus genotype 2a JFH-1 infected in human Huh7 cells assessed as decrease in subgenomic RNA level after 72 hrs by RT-PCR analysis; assay type: functional, cell-based, Hepacivirus hominis; conditions: genotype 2a JFH-1, Huh-7, 72 h
[10] = Solubility of the compound in phosphate buffered saline at pH 7.4 after 4 hrs by LC-MS/MS analysis
[11] = target: T1, Peptidyl-prolyl cis-trans isomerase A; assay: Inhibition of PPIase activity of recombinant CypA (unknown origin) assessed as chymotrypsin-mediated N-succinyl-Ala-Ala-Pro-Phe-p-nitroanilide hydrolysis after 1 hr by spectrophotometric analysis
physchem = conditions: n-octanol/potassium phosphate buffer, pH 7.4
[12] = Percentage bound in human plasma at 1 uM after 5 hrs by dialysis chamber method; assay type: ADME, cell-free; conditions: read-out: PPB (converted)
PBMC = assay: Immunosuppressive activity in human PBMC isolated from two individuals assessed as inhibition of proliferation using [3H]thymidine by mixed lymphocyte reaction assay; assay type: cell-based

| Structure (SMILES) | EC50 (Hepatitis C virus [1]) | EC90 (Hepatitis C virus [1]) | selectivity ratio [2] | CC50 at 72 h [3] | EC50 (Hepatitis C virus [4]) | half-life at 1 µM (in vitro) | half-life at 1 µM [5] | half-life at 1 µM [6] | IC50 [7] | EC50 (Hepatitis C virus [8]) | EC50 (Hepatitis C virus [9]) | solubility at 4 h [10] | IC50 [11] | logD at 1 h (physchem) | fraction unbound at 5 h, 1 µM [12] | IC50 (PBMC) |
| --- | --- | --- | --- | --- | --- | --- | --- | --- | --- | --- | --- | --- | --- | --- | --- | --- |
| CCC[C@H](NC(=O)[C@@H]1[C@H]2CCC[C@H]2CN1C(=O)[C@@H](NC(=O)[C@@H](NC(=O)c1cnccn1)C1CCCCC1)C(C)(C)C)C(=O)C(=O)NC1CC1 | 0.235 µM | 0.838 µM | > 315 | > 74 µM | 0.72 µM | – | – | – | – | – | – | – | – | – | – | – |
| C=CCNC(=O)/C=C/C=C(\C)[C@@H]1C/C=C/C=C/[C@H](O)[C@H](C)[C@@H](O)[C@@H](CCC(C)=O)C(=O)N[C@@H](C(C)C)C(=O)N[C@@H](Cc2cccc(O)c2)C(=O)N2CCCC(N2)C(=O)O1 (stereo in doubt) | 1.6 µM | 8.5 µM | 30 | 48 µM | – | 10.6 min | 139 min | 23.9 min | 0.36 µM | – | – | – | – | – | – | – |
| C/C=C/C[C@@H](C)[C@@H](O)[C@H]1C(=O)N[C@@H](CC)C(=O)N(C)CC(=O)N(C)[C@@H](CC(C)C)C(=O)N[C@@H](C(C)C)C(=O)N(C)[C@@H](CC(C)C)C(=O)N[C@@H](C)C(=O)N[C@H](C)C(=O)N(C)[C@@H](CC(C)C)C(=O)N(C)[C@@H](CC(C)C)C(=O)N(C)[C@@H](C(C)C)C(=O)N1C [CYCLOSPORINE] | 0.306 µM | 1 µM | – | – | 0.137 µM | – | – | – | – | 0.198 µM | 0.455 µM | – | – | – | – | – |
| CC(=O)CC[C@H]1C(=O)N[C@@H](C(C)C)C(=O)N[C@@H](Cc2cccc(O)c2)C(=O)N2CCCC(N2)C(=O)O[C@H](/C(C)=C/C=C/C(=O)Nc2ccc(-c3ccccc3)cc2)C/C=C/C=C/[C@H](O)[C@H](C)[C@H]1O (stereo in doubt) | 0.208 µM | 1.15 µM | > 481 | > 100 µM | – | 1.3 min | > 240 min | 2.3 min | 0.52 µM | – | – | 2 µM (≈ 1.86 µg/mL) | – | – | – | – |
| CC(=O)CC[C@H]1C(=O)N[C@@H](C(C)C)C(=O)N[C@@H](Cc2cccc(O)c2)C(=O)N2CCCC(N2)C(=O)O[C@H](/C(C)=C/C=C/C(=O)N(C)C)C/C=C/C=C/[C@H](O)[C@H](C)[C@H]1O (stereo partly drawn) | 0.349 µM | 62 µM | > 287 | > 100 µM | – | 24.7 min | 128 min | 48 min | 0.63 µM | – | – | > 100 µM | – | – | – | – |
| CC(=O)CC[C@H]1C(=O)N[C@@H](C(C)C)C(=O)N[C@@H](Cc2cccc(O)c2)C(=O)N2CCCC(N2)C(=O)O[C@H](/C(C)=C/C=C/C(=O)N2CCOCC2)C/C=C/C=C/[C@H](O)[C@H](C)[C@H]1O (stereo partly drawn) | 1.4 µM | 7.4 µM | > 72 | – | – | 18 min | > 240 min | 50.3 min | 0.33 µM | – | – | > 100 µM | – | – | – | – |
| CC(=O)CC[C@H]1C(=O)N[C@@H](C(C)C)C(=O)N[C@@H](Cc2cccc(O)c2)C(=O)N2CCCC(N2)C(=O)O[C@H](/C(C)=C/C=C/C(=O)N(C)C2CCCCC2)C/C=C/C=C/[C@H](O)[C@H](C)[C@H]1O (stereo partly drawn) | 0.148 µM | 1.9 µM | 446 | 66 µM | – | 1.9 min | > 240 min | 3.3 min | 0.42 µM | – | – | 48 µM (≈ 42.1 µg/mL) | – | – | – | – |
| CC(=O)CC[C@H]1C(=O)N[C@@H](C(C)C)C(=O)N[C@@H](Cc2cccc(O)c2)C(=O)N2CCCC(N2)C(=O)O[C@H](/C(C)=C/C=C/C(=O)Nc2cccnc2)C/C=C/C=C/[C@H](O)[C@H](C)[C@H]1O (stereo in doubt) | 2.48 µM | 5.41 µM | > 40 | > 100 µM | – | 3.3 min | 116 min | 7.5 min | 0.46 µM | – | – | 18 µM (≈ 15.4 µg/mL) | – | – | – | – |
| CC(=O)CC[C@H]1C(=O)N[C@@H](C(C)C)C(=O)N[C@@H](Cc2cccc(O)c2)C(=O)N2CCCC(N2)C(=O)O[C@H](/C(C)=C/C=C/C(=O)Nc2ccccn2)C/C=C/C=C/[C@H](O)[C@H](C)[C@H]1O (stereo in doubt) | 0.167 µM | 0.74 µM | 240 | 40 µM | – | 8.8 min | 95 min | 4.4 min | 0.39 µM | – | – | 61 µM (≈ 52.3 µg/mL) | 0.0041 µM | – | – | – |
| CC(=O)CC[C@H]1C(=O)N[C@@H](C(C)C)C(=O)N[C@@H](Cc2cccc(O)c2)C(=O)N2CCCC(N2)C(=O)O[C@H](/C(C)=C/C=C/C(=O)N(CC(C)C)CC(C)C)C/C=C/C=C/[C@H](O)[C@H](C)[C@H]1O (stereo partly drawn) | 0.309 µM | 1.1 µM | 6.8 | 2.1 µM | – | 2.5 min | 98 min | 21.6 min | 0.39 µM | – | – | – | – | – | – | – |
| CCN(CC)C(=O)/C=C/C=C(\C)[C@@H]1C/C=C/C=C/[C@H](O)[C@H](C)[C@@H](O)[C@@H](CCC(C)=O)C(=O)N[C@@H](C(C)C)C(=O)N[C@@H](Cc2cccc(O)c2)C(=O)N2CCCC(N2)C(=O)O1 (stereo partly drawn) | 0.204 µM | 1.2 µM | > 490 | > 100 µM | – | 8.4 min | 94 min | 16.8 min | 0.35 µM | – | – | > 100 µM | – | – | – | – |
| CNC(=O)/C=C/C=C(\C)[C@@H]1C/C=C/C=C/[C@H](O)[C@H](C)[C@@H](O)[C@@H](CCC(C)=O)C(=O)N[C@@H](C(C)C)C(=O)N[C@@H](Cc2cccc(O)c2)C(=O)N2CCCC(N2)C(=O)O1 (stereo in doubt) | 8 µM | 60.2 µM | > 13 | > 100 µM | – | 22.5 min | 192 min | 37.2 min | 0.5 µM | – | – | > 100 µM | – | – | – | – |
| CC[C@H]1C[C@H](C)[C@@]2(NC1=O)O[C@@H](C[C@H](O)[C@@H](C)CC/C=C/C=C(\C)[C@@H]1C/C=C/C=C/[C@H](O)[C@H](C)[C@@H](O)[C@@H](CCC(C)=O)C(=O)N[C@@H](C(C)C)C(=O)N[C@@H](Cc3cccc(O)c3)C(=O)N3CCCC(N3)C(=O)O1)[C@H](C)[C@H](O)[C@@H]2C (stereo partly drawn) | 0.318 µM | 5.5 µM | – | 9.1 µM | 0.222 µM | 4 min | 145 min | 7.9 min | – | 0.301 µM | 0.247 µM | 45 µM (≈ 49.1 µg/mL) | – | > 3.7 | < 0.01 | 0.215 µM |
| CC(=O)CC[C@H]1C(=O)N[C@@H](C(C)C)C(=O)N[C@@H](Cc2cccc(O)c2)C(=O)N2CCCC(N2)C(=O)O[C@H](/C(C)=C/C=C/C(=O)NC(C)C)C/C=C/C=C/[C@H](O)[C@H](C)[C@H]1O (stereo in doubt) | 0.56 µM | 4.6 µM | > 179 | > 100 µM | – | 6.4 min | 59 min | 16.9 min | 0.38 µM | – | – | 12 µM (≈ 9.86 µg/mL) | – | – | – | – |
| CC(=O)CC[C@H]1C(=O)N[C@@H](C(C)C)C(=O)N[C@@H](Cc2cccc(O)c2)C(=O)N2CCCC(N2)C(=O)O[C@H](/C(C)=C/C=C/C(=O)Nc2ccncc2)C/C=C/C=C/[C@H](O)[C@H](C)[C@H]1O (stereo partly drawn) | 8.06 µM | 31.9 µM | > 12.4 | > 100 µM | – | 15.2 min | > 240 min | 32.2 min | 0.55 µM | – | – | 15 µM (≈ 12.9 µg/mL) | – | – | – | – |
| C/C=C/C[C@@H](C)[C@@H](O)[C@H]1C(=O)N[C@@H](CC)C(=O)N(C)[C@H](C)C(=O)N(CC)[C@@H](C(C)C)C(=O)N[C@@H](C(C)C)C(=O)N(C)[C@@H](CC(C)C)C(=O)N[C@@H](C)C(=O)N[C@H](C)C(=O)N(C)[C@@H](CC(C)C)C(=O)N(C)[C@@H](CC(C)C)C(=O)N(C)[C@@H](C(C)C)C(=O)N1C [ALISPORIVIR] | – | – | – | – | – | – | – | – | – | – | – | – | – | – | – | 0.84 µM |
| CC(=O)CC[C@H]1C(=O)N[C@@H](C(C)C)C(=O)N[C@@H](Cc2cccc(O)c2)C(=O)N2CCCC(N2)C(=O)O[C@H](/C(C)=C/C=C/C(=O)NC2CCCCC2)C/C=C/C=C/[C@H](O)[C@H](C)[C@H]1O (stereo in doubt) | 0.336 µM | 4.23 µM | > 298 | > 100 µM | – | 2.7 min | > 240 min | 6.5 min | 0.45 µM | – | – | 29 µM (≈ 25 µg/mL) | – | – | – | – |
| CC(=O)CC[C@H]1C(=O)N[C@@H](C(C)C)C(=O)N[C@@H](Cc2cccc(O)c2)C(=O)N2CCCC(N2)C(=O)O[C@H](/C(C)=C/C=C/C(=O)N(C)c2ccccn2)C/C=C/C=C/[C@H](O)[C@H](C)[C@H]1O (stereo partly drawn) | 2.01 µM | 11.5 µM | > 50 | > 100 µM | – | 9.8 min | 150 min | 19.1 min | 0.33 µM | – | – | 17 µM (≈ 14.8 µg/mL) | – | – | – | – |
